From US6358885B1, “Substituted phenylheterocyclic herbicides” (Mississippi State University, priority 1992, dated 2002)

What was measured:
barnyardgrass = assay: Test C flood test plant response rating 0 to 100; type: in vivo, Echinochloa crus-galli; conditions: for Plant response rating (0 to 100), Barnyardgrass: under POSTEMERGENCE head (flood test species); for Plant response rating, Barnyardgrass: flood test species listed under POSTEMERGENCE, 0 to 100 scale
Text: (§1) The compounds evaluated in this test were formulated in a non-phytoxic solvent and applied to the soil surface before plant seedlings emerged (preemergence application), to water that covered the soil surface (flood application), and to plants that were in the one-to-four leaf stage (postemergence application). A sandy loam soil was used for the preemergence and postemergence tests, while a silt loam soil was used in the flood test. Water depth was approximately 2.5 cm for the flood test and was maintained at this level for the duration of the test. Plant species in the preemergence and postemergence tests consisted of barley (Hordeum vulgare), bedstraw (Galium aparine), blackgrass (Alopecurus myosuroides), chickweed (Stellaria media), corn (Zea mays), cotton (Gossypium hirsutum), crabgrass (Digitaria sanguinalis), downy brome (Bromus tectorum), giant foxtail (Setaria faberii), lambsquarters (Chenopodium album), morningglory (Ipomoea hederacea), pigweed ([…]), rape (Brassica napus), ryegrass (Lolium multiflorum), sorghum (Sorghum bicolor), soybean (Glycine max), speedwell (Veronica persica), sugar beet (Beta vulgaris), velvetleaf (Abutilon theophrasti), wheat (Triticum aestivum), wild buckwheat (Polygonum convolvulus), and wild oat (Avena fatua). All plant species were planted one day before application of the compound for the preemergence portion-of this test. Plantings of these species were adjusted to produce plants of appropriate size for the post-emergence portion of the test. […] All plant species were grown using normal greenhouse practices. Visual evaluations of injury expressed on treated plants, when compared to untreated controls, were recorded approximately fourteen to twenty one days after application of the test compound. […] A dash (-) response means no test result.

wild oat [1] = assay: Test C preemergence/postemergence greenhouse plant response rating 0 to 100; type: in vivo, Avena fatua; conditions: POSTEMERGENCE; for Plant response rating, Wild oat: 0 to 100 scale
Text: as §1

crabgrass = assay: as above; type: in vivo, Digitaria sanguinalis; conditions: POSTEMERGENCE; for Plant response rating, Crabgrass: 0 to 100 scale
Text: as §1

blackgrass = assay: Test B preemergence/postemergence greenhouse plant response rating 0 to 10; type: in vivo, Alopecurus myosuroides; conditions: for Plant response rating, Blackgrass: 0 to 10 scale
Summary of the method: (§2)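 Planted seeds are treated preemergence with compound dissolved in a non-phytotoxic solvent, while postemergence applications go onto plants of two to eighteen cm. Plants stay in the greenhouse twelve to sixteen days and are then rated visually relative to controls.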

downy brome = assay: Test C preemergence/postemergence greenhouse plant response rating 0 to 100; type: in vivo, Bromus tectorum; conditions: POSTEMERGENCE; for Plant response rating Downy Brome: 0 to 100 scale
Text: as §1

sugar beet = assay: Test B preemergence/postemergence greenhouse plant response rating 0 to 10; type: in vivo, Beta vulgaris; conditions: 0 to 10 scale
Summary of the method: as §2

barley = assay: as above; type: in vivo, Hordeum vulgare; conditions: for Plant response rating, Barley: 0 to 10 scale
Summary of the method: as §2

sorghum [2] = assay: Test C preemergence/postemergence greenhouse plant response rating 0 to 100; type: in vivo, Sorghum bicolor; conditions: POSTEMERGENCE; for Plant response rating, Sorghum: 0 to 100 scale
Text: as §1

bedstraw = assay: Test B preemergence/postemergence greenhouse plant response rating 0 to 10; type: in vivo, Galium aparine; conditions: for Plant response rating, Bedstraw: 0 to 10 scale
Summary of the method: as §2

wheat [3] = assay: Test C preemergence/postemergence greenhouse plant response rating 0 to 100; type: in vivo, Triticum aestivum; conditions: POSTEMERGENCE; for Plant response rating, Wheat: 0 to 100 scale
Text: as §1

ryegrass = assay: as above; type: in vivo, Lolium multiflorum; conditions: POSTEMERGENCE; for Plant response rating Ryegrass: 0 to 100 scale
Text: as §1

rape = assay: as above; type: in vivo, Brassica napus; conditions: POSTEMERGENCE; for Plant response rating, Rape: 0 to 100 scale
Text: as §1

lambsquarters = assay: Test B preemergence/postemergence greenhouse plant response rating 0 to 10; type: in vivo, Chenopodium album; conditions: 0 to 10 scale
Summary of the method: as §2

sorghum [4] = assay: as above; type: in vivo, Sorghum bicolor; conditions: 0 to 10 scale
Summary of the method: as §2

wild buckwheat = assay: Test C preemergence/postemergence greenhouse plant response rating 0 to 100; type: in vivo, Polygonum convolvulus; conditions: POSTEMERGENCE; for Plant response rating, Wild buckwheat: 0 to 100 scale
Text: as §1

wild oat [5] = assay: Test B preemergence/postemergence greenhouse plant response rating 0 to 10; type: in vivo, Avena fatua; conditions: 0 to 10 scale
Summary of the method: as §2

cotton = assay: as above; type: in vivo, Gossypium hirsutum; conditions: for Plant response rating, Cotton: 0 to 10 scale
Summary of the method: as §2

wheat [6] = assay: as above; type: in vivo, Triticum aestivum; conditions: 0 to 10 scale
Summary of the method: as §2

## COC(=O)C(C)Oc1cc(-c2nn3c(c2Cl)CCCC3)c(F)cc1Cl (centres unmarked) [Compound 28]
barnyardgrass; Rate 4 g/ha
  Plant response rating (0 to 100), Barnyardgrass: 35
barnyardgrass; Rate 16 g/ha
  Plant response rating (0 to 100), Barnyardgrass: 50
barnyardgrass; 62 g/ha
  Plant response rating, Barnyardgrass: 95
barnyardgrass; 250 g/ha
  Plant response rating, Barnyardgrass: 100
Wild oat [1]; 62 g/ha
  Plant response rating, Wild oat: 50
Wild oat [1]; 250 g/ha
  Plant response rating, Wild oat: 70
Wild oat [1]; Rate 4 g/ha
  Plant response rating (0 to 100), Wild oat: 20
Wild oat [1]; Rate 16 g/ha
  Plant response rating (0 to 100), Wild oat: 30
crabgrass; 62 g/ha
  Plant response rating, Crabgrass: 20
crabgrass; 250 g/ha
  Plant response rating, Crabgrass: 50
crabgrass; Rate 4 g/ha
  Plant response rating (0 to 100), Crabgrass: 0
crabgrass; Rate 16 g/ha
  Plant response rating (0 to 100), Crabgrass: 0
blackgrass; POSTEMERGENCE, Rate 50 g/ha
  Plant response rating (0 to 10 scale), Blackgrass: 4
blackgrass; POSTEMERGENCE, Rate 200 g/ha
  Plant response rating, Blackgrass: 6
blackgrass; PREEMERGENCE, Rate 50 g/ha
  Plant response rating, Blackgrass: 2
blackgrass; Rate 200 g/ha, PREEMERGENCE
  Plant response rating, Blackgrass: 4
Downy brome; 62 g/ha
  Plant response rating Downy Brome: 60
Downy brome; 250 g/ha
  Plant response rating Downy Brome: 100
Downy brome; Rate 4 g/ha
  Plant response rating (0 to 100), Downy Brome: 10
Downy brome; Rate 16 g/ha
  Plant response rating (0 to 100), Downy Brome: 40
Sugar beet; POSTEMERGENCE, Rate 50 g/ha
  Plant response rating, Sugar beet: 10
Sugar beet; POSTEMERGENCE, Rate 200 g/ha
  Plant response rating, Sugar beet: 10
Sugar beet; PREEMERGENCE, Rate 50 g/ha
  Plant response rating, Sugar beet: 10
Sugar beet; Rate 200 g/ha, PREEMERGENCE
  Plant response rating, Sugar beet: 10
barley; POSTEMERGENCE, Rate 50 g/ha
  Plant response rating (0 to 10 scale), Barley: 6
barley; POSTEMERGENCE, Rate 200 g/ha
  Plant response rating, Barley: 6
barley; PREEMERGENCE, Rate 50 g/ha
  Plant response rating, Barley: 0
barley; Rate 200 g/ha, PREEMERGENCE
  Plant response rating, Barley: 0
Sorghum [2]; 62 g/ha
  Plant response rating, Sorghum: 100
Sorghum [2]; 250 g/ha
  Plant response rating, Sorghum: 100
Sorghum [2]; Rate 4 g/ha
  Plant response rating (0 to 100), Sorghum: 20
Sorghum [2]; Rate 16 g/ha
  Plant response rating (0 to 100), Sorghum: 50
bedstraw; POSTEMERGENCE, Rate 50 g/ha
  Plant response rating (0 to 10 scale), Bedstraw: 9
bedstraw; POSTEMERGENCE, Rate 200 g/ha
  Plant response rating, Bedstraw: 10
bedstraw; PREEMERGENCE, Rate 50 g/ha
  Plant response rating, Bedstraw: 8
bedstraw; Rate 200 g/ha, PREEMERGENCE
  Plant response rating, Bedstraw: 10
Wheat [3]; 62 g/ha
  Plant response rating, Wheat: 70
Wheat [3]; 250 g/ha
  Plant response rating, Wheat: 100
Wheat [3]; Rate 4 g/ha
  Plant response rating (0 to 100), Wheat: 40
Wheat [3]; Rate 16 g/ha
  Plant response rating (0 to 100), Wheat: 60
ryegrass; 62 g/ha
  Plant response rating Ryegrass: 60
ryegrass; 250 g/ha
  Plant response rating Ryegrass: 70
ryegrass; Rate 4 g/ha
  Plant response rating (0 to 100), Ryegrass: 20
ryegrass; Rate 16 g/ha
  Plant response rating (0 to 100), Ryegrass: 40
rape; 62 g/ha
  Plant response rating, Rape: 100
rape; 250 g/ha
  Plant response rating, Rape: 100
rape; Rate 4 g/ha
  Plant response rating (0 to 100), Rape: 50
rape; Rate 16 g/ha
  Plant response rating (0 to 100), Rape: 70
lambsquarters; POSTEMERGENCE, Rate 50 g/ha
  Plant response rating, Lambsquarter: 10
lambsquarters; POSTEMERGENCE, Rate 200 g/ha
  Plant response rating, Lambsquarter: 10
lambsquarters; PREEMERGENCE, Rate 50 g/ha
  Plant response rating, Lambsquarter: 10
lambsquarters; Rate 200 g/ha, PREEMERGENCE
  Plant response rating, Lambsquarter: 10
Sorghum [4]; POSTEMERGENCE, Rate 50 g/ha
  Plant response rating, Sorghum: 7
Sorghum [4]; POSTEMERGENCE, Rate 200 g/ha
  Plant response rating, Sorghum: 9
Sorghum [4]; PREEMERGENCE, Rate 50 g/ha
  Plant response rating, Sorghum: 0
Sorghum [4]; Rate 200 g/ha, PREEMERGENCE
  Plant response rating, Sorghum: 0
Wild buckwheat; 62 g/ha
  Plant response rating, Wild buckwheat: 70
Wild buckwheat; 250 g/ha
  Plant response rating, Wild buckwheat: 90
Wild buckwheat; Rate 4 g/ha
  Plant response rating (0 to 100), Wild buckwheat: 30
Wild buckwheat; Rate 16 g/ha
  Plant response rating (0 to 100), Wild buckwheat: 60
Wild oat [5]; POSTEMERGENCE, Rate 50 g/ha
  Plant response rating, Wild oat: 5
Wild oat [5]; POSTEMERGENCE, Rate 200 g/ha
  Plant response rating, Wild oat: 6
Wild oat [5]; Rate 200 g/ha, PREEMERGENCE
  Plant response rating, Wild oat: 2
cotton; POSTEMERGENCE, Rate 50 g/ha
  Plant response rating (0 to 10 scale), Cotton: 10
cotton; POSTEMERGENCE, Rate 200 g/ha
  Plant response rating, Cotton: 10
cotton; PREEMERGENCE, Rate 50 g/ha
  Plant response rating, Cotton: 0
cotton; Rate 200 g/ha, PREEMERGENCE
  Plant response rating, Cotton: 0
Wheat [6]; POSTEMERGENCE, Rate 50 g/ha
  Plant response rating, Wheat: 7
Wheat [6]; POSTEMERGENCE, Rate 200 g/ha
  Plant response rating, Wheat: 9
Wheat [6]; PREEMERGENCE, Rate 50 g/ha
  Plant response rating, Wheat: 0
Wheat [6]; Rate 200 g/ha, PREEMERGENCE
  Plant response rating, Wheat: 2
